Results on two substances are retold here after patent publication US9393187B2, “Peptide compounds that inhibit neuronal exocytosis” (LUBRIZOL ADVANCED MATERIALS, INC., priority 2012, dated 2016).

The test deals with human neuroblastoma cell line. Briefly: Release of noradrenaline induced by TPA/Ionomycin in a neuroblastoma cell line, quantified by ELISA. In kind it is cell-based. The following applies: TPA/ION control = 100. As to the method:
Quantification of the Release of Noradrenaline Induced by TPA/Ionomycin in a Neuroblastoma Cell Line by ELISA
The induction of the release of noradrenaline with TPA (12-O-tetradecanoylphorbol-13-acetate)/lonomycin enables direct measurement of neuronal exocytosis. For the study of the inhibitory effect of the compounds of the invention on the release of noradrenaline, cells of a human neuroblastoma cell line were pre-incubated (1×10^6 cells/well) for 60 minutes with the compound of the invention (1 μM, 10 μM, 100 μM, 500 μM or 1 mM compounds), and afterwards the release of noradrenaline was induced. The release of the noradrenaline neurotransmitter was induced by an 8 minute pre-treatment with a solution of 12-O-tetradecanoylphorbol-13-acetate (TPA) 100 nM, which mobilized the intracellular vesicles which contained the neuro-transmitter; followed by a 5 minute incubation with TPA/Ionomycin (100 nM/10 μM), which induced the release of the neurotransmitter contained in these vesicles. […] For this, absorbance at 405 nm was measured in Thermo Scientific Multiskan Ascent equipment.
The blocking of the SNARE complex by the compounds of the invention lead to an inhibition of neuronal exocytosis and therefore, a decrease in the levels of released noradrenaline (Table 6).

As for Ac-NDIAQM-NH2 [Ac-SEQ ID NO:30-NH2], the “% RELEASED NORADRENALINE Average” value runs as follows: (dose 1 μM) 99.59%; (dose 10 μM) 94.48%; (dose 100 μM) 74.79%; (dose 500 μM) 48.07%; (dose 1000 μM) 41.05%.

As to Ac-RDFDQW-NH2 [Ac-SEQ ID NO:31-NH2], the “% RELEASED NORADRENALINE Average” value by setting is: (dose 10 μM) 83.33%; (dose 100 μM) 69.07%; (dose 1000 μM) 31.72%.
